Consider four compounds from patent publication US8445190B2, “Method of inhibiting biomaterial-induced procoagulant activity using complement inhibitors” (The Trustees of the University of Pennsylvania, priority 2008, dated 2013).

Experiment [1] has as its system TF-dependent procoagulant activity of PMN culture supernatants. In words: modified prothrombin time (mPT) of supernatants of healthy PMNs incubated with ESRD hemodialysis serum. It counts as cell-based, human. As to conditions: for mPT values: FIG. 4A; for effect on procoagulant activity (mPT) induced by ESRD serum in PMN supernatants: in words, FIG. 1A / FIG. 4A. From the text:
(§1) Complement and anaphylatoxin inhibition studies. I) Compstatin, a 13-residue cyclic peptide (Ac-I[CVWQDWGAHRTC]TNH2) that inhibits the cleavage of native C3 by the C3 convertase, was used as a specific inhibitor of complement activation at the C3 level. In certain studies, a compstatin analog (1-methyl tryptophan as the 4th residue) was used. […] II) SB-290152, a selective nonpeptide antagonist of the complement anaphylatoxin receptor C3aR, was used in this study to dissect the involvement of C3aR signalling in the generation of neutrophil derived TF [27]. III) To block C5aR stimulation on neutrophils, a small cyclic hexapeptide (AcF-[OPdChaWR]) that acts as a selective C5aR antagonist was used. Sera were pre-incubated for 30 min with Compstatin or its linear analogue (15 μM final concentration), before incubation with leukocytes. Furthermore, serum for stimulation was added to leukocytes that had been pre-incubated for 30 min with C3aRa or C5aRa (5-10 μM final concentration). Approximately […] washed cells from healthy donors were used for the subsequent incubations, The final volume was adjusted with PBS at 250 μl and the leukocytes were incubated for 90-120 min at 37° C.
Modified prothrombin time (mPT) assay to examine TF mediated coagulation activity in cell supernatants, complement inhibition and anaphylatoxin receptor studies. Since it has been shown previously that TF dependent procoagulant activity in leukocyte culture supernatants is altered after C5a/C5aR stimulation or blockade, the mPT method was used in order to estimate primarily the kinetics of TF induction. The presence of TF in supernatants is probably due to the presence of the soluble, spliced TF isoform or TF microparticles.
At the end of the incubation period, supernatants of cells were collected by centrifugation at 800 g for 10 min and were checked a second time to confirm the absence of cells and platelets. The coagulation activity properties (TF/FVIIa binding activity) of the cell supernatants were determined using a modified prothrombin time (mPT) assay. Briefly, after performing the “classic” PT test (100 μl platelet poor plasma [PPP] plus 200 μl thromboplastin ISI 1.7 (Instrumentation Laboratory, Milan, Italy), the modified PT analysis was carried out. Namely, 125 μl of cell supernatant and 75 μl thromboplastin were added to 100 μl of PPP to measure the changes of PT. As control of mPT, 125 μl of PBS was used instead of cell supernatant and the in vitro clotting time usually ranged from 31 to 34 sec.
To verify that the thromboplastic activity was due to TF alone, supernatants were incubated for 30 min with a specific neutralizing anti-TF monoclonal antibody (mAb, No 4509, American Diagnostica, Greenwich, Conn., USA), 10 μg/ml, at room temperature. PT was then measured by the mPT method. Non-specific controls involved incubation with the same subclass and concentration of mouse anti-human antibodies, as well as with different secondary antibodies.
Serum of ESRD patients exerts procoagulant activity through TF induction and follows a time dependent manner during the hemodialysis course. […] The procoagulant activity of the above cell culture supernatants was measured using the mPT method.

Experiment [2] shares this test system. In words: mPT of PMN supernatants after incubation with serum preincubated with polysulfone hemodialysis filter fibers. The following applies: for mPT: FIG. 5C. It is filed as cell-based, human. The protocol: (§2) FIG. 5: Hemodialysis filter fibers induce in vitro TF dependent procoagulant properties in both ESRD and healthy serum through complement activation. […] C3b generation was detected by […]. CVF-activated plasma was used as a standard for 100% complement activation. The percentage of complement activation is depicted in the diagram. B: Serum from healthy donors was preincubated with hollow fibers from polysulfone hemodialysis filters at different time periods (10, 30, 60 & 120 min). PMNs were incubated with the pretreated serum and their supernatants were assayed for TF with mPT. A time-dependent procoagulant activity was observed (bar 2: 28.06±0.21, 3: 27.32±0.39, 4: 25.65±0.78, 5: 24.67±0.47, p<0.01 compared to bar 1: 31.81±0.28), which was blocked by the addition of anti-TF mAb in supernatants showing the highest procoagulant effect (bar 6: 31.49±0.12, p<0.05 compared to bar 5). C: Predialysis ESRD serum preincubated for 60 min with filter fibers, induced stronger procoagulant activity in PMN culture supernatants compared to when healthy serum was used (bars 3: 25.65±0.78, 6: 20.06±0.35, p<0.01 compared to bars 1: 33.12±0.25, 2: 29.07±0.33, respectively). Inhibitions with compstatin or C5aR antagonist, in both pre-treated sera, elucidated that the observed TF-dependent procoagulant activity was complement mediated (bars 4: 29.60±0.57, 5: 29.15±0.49 & 7: 26.85±0.21, 8: 26.05±0.35, p<0.01 compared to bars 3 and 6, respectively).
Complement and anaphylatoxin inhibition studies. I) Compstatin, a 13-residue cyclic peptide (Ac-I[CVWQDWGAHRTC]TNH2) that inhibits the cleavage of native C3 by the C3 convertase, was used as a specific inhibitor of complement activation at the C3 level. […]
At the end of the incubation period, supernatants of cells were collected by centrifugation at 800 g for 10 min and were checked a second time to confirm the absence of cells and platelets. The coagulation activity properties (TF/FVIIa binding activity) of the cell supernatants were determined using a modified prothrombin time (mPT) assay. […]

Experiment [3] concerns TF mRNA expression in PMNs. In words: real time RT-PCR of TF mRNA in PMNs incubated with activated ESRD serum. It is filed as cell-based, human. As to conditions: FIG. 4B. The protocol: 4: Involvement of the complement pathway in the procoagulant properties of ESRD serum. […] In contrast, both a selective C3aR antagonist (10 μM-30 min) and a non-active linear analogue of compstatin had no effect on mPT values (bars 6, 7: 22.99±0.26 and 24.16±0.23, respectively; p: n.s. vs. bar 3).
as §1
RNA extraction, RT & relative quantitative real-time PCR analysis. […] In order to quantify the relative expression level of the two TF isoforms with coagulant properties [(full-length TF (referred to hereafter as ‘TF’) and alternative spliced TF (asTF)], isoform specific real-time PCR was performed. In each sample TF, asTF and GAPDH mRNA sequence-specific primers and probes for detection were applied. The 2^−DDCT method was used for quantification of the target gene expression.
A general note: In qPCR the cycle at which signal appears reflects the starting amount.

The subject of experiment [4] is complement activation (C3b generation). Description: C3b generation ELISA in plasma incubated with hemodialysis filter fibers. As to conditions: in words; FIG. 5A; plasma with 15 mg fibers, over time, two concentrations. It counts as biochemical. The protocol:
as §2, with “Inhibitions with compstatin or C5aR antagonist, in both pre-treated sera, elucidated that the observed TF-dependent procoagulant activity was complement mediated (bars 4: 29.60±0.57, 5: 29.15±0.49 & 7: 26.85±0.21, 8: 26.05±0.35, p<0.01 compared to bars 3 and 6, respectively).” left out
On the technique in general: In an ELISA, binding on a coated surface is turned into a signal by an enzyme label.

Experiment [5] deals with tissue factor (TF) in blood neutrophils. Description: hemodialysis simulation with whole blood: flow cytometry of intracellular tissue factor in blood neutrophils. It counts as cell-based, human. The following applies: in words; 40 uM in whole blood circuit; FIG. 7C. The text has this:
(§3) FIG. 7. Complement activation during hemodialysis simulation is reduced or prevented by a compstatin analog. […] A: ELISA detection of complement activation fragment C3b using a C3-9 mAB. B: Detection of cellular cascade activation by flow cytometry after surface staining of blood neutrophils for CD11b. C: Detection of coagulation cascade activation by flow cytometry after intracellular staining of blood neutrophils for tissue factor (TF).
(§4) Whole blood was collected from healthy volunteers. […] All experiments were started within 30 min after blood collection.
(§5) To minimize the blood volume needed, HPH Junior polysulfone dialyzers (Minntech Corporation) were used. Standard bloodline components served as tubing system (Arterial & venous blood lines, Set a/v for Fresenius 2008/4008, HMC Premedical S.p.A., Italy). […]
(§6) To examine the activation of crucial pathways involved in the interaction of blood with the artificial surface of the dialyzer, complement, coagulation and neutrophil activation were analyzed. Briefly, complement activation was measured in plasma using a monoclonal antibody C3-9 (2 ug/ml), which recognizes a neoantigen that is exposed in C3(H2O), C3b and C3c but not in native C3. Neutrophil activation was assessed using flow cytometry after surface staining of CD11b (PE Mouse Anti-human CD11b/Mac-1, Cat. No 555388, BD Pharmigen). […]

The test system of experiment [6] is CD11b on blood neutrophils. In words: hemodialysis simulation with whole blood: flow cytometry of CD11b on blood neutrophils. It counts as cell-based, human. As to conditions: in words; 40 uM in whole blood circuit; FIG. 7B.
Source text: as §3, §4, §5, §6

Experiment [7] relates to complement activation (C3b). Description: hemodialysis simulation with whole blood: ELISA of C3 cleavage products (C3-9 mAb) in plasma. It counts as biochemical, human. The following applies: in words; 40 uM in whole blood circuit; FIG. 7A.
Source text: as §3, §4, §5, §6

[8] abbreviates: PMNs preincubated with receptor antagonist (10 μM-30 min), then ESRD serum of 15 to 30 min of hemodialysis, no antagonist bar 3: 22.96±0.22, control bar 1: 31.96±0.21.

Where no end group is shown, it is not given here.

Turning to `NC(N)=NCCC[C@H](NC(=O)COCC(c1ccccc1)c1ccccc1)C(=O)O` [C3aR antagonist, SB-290152], the mPT values in experiment [1] (setting [8]) is 22.99±0.26. The “effect on procoagulant activity (mPT) induced by ESRD serum in PMN supernatants” value in experiment [1] is “did not affect the mPT values”. Besides, the “effect on procoagulant activity induced by filter-fiber treated serum in neutrophil supernatants” value in experiment [2] (in words, FIG. 5B/5C) is “no effect on the procoagulant activity”.
For “Acetyl-Phe-[Orn-Pro-D-cyclohexylalanine-Trp-Arg] (FXPXWR; non-natural residues; cyclised or stapled) [C5aR antagonist]”, the mPT values in experiment [1] (setting [8]) turned out to be 31.65±0.28. For the same compound, the “effect on procoagulant activity (mPT) induced by ESRD serum in PMN supernatants” value in experiment [1] was “abrogated the observed procoagulant activity”. In addition, the “average DCt of TF mRNA” value in experiment [3] (PMNs incubated with activated serum bar 1: 7.92±0.29) is recorded as 9.02±0.62. In addition, the “fold decrease of TF mRNA expression” value in experiment [3] (vs. PMNs incubated with activated serum (bar 1)) was 2.14 fold. Also, the “effect on TF expression in PMNs (2^−DDCT analysis)” value in experiment [3] (in words) is reported as “inhibited the stimulation effect”. Further, the mPT in experiment [2] (healthy serum preincubated 60 min with filter fibers, without inhibitor bar 3: 25.65±0.78) is reported as 29.15±0.49; in experiment [2] (predialysis ESRD serum preincubated 60 min with filter fibers, without inhibitor bar 6: 20.06±0.35), 26.05±0.35.
“IAVWQDWGAHRTAT-NH2 [non-active linear analogue of compstatin, reference compound]” yielded a mPT values in experiment [1] (ESRD serum taken at 15 to 30 min of hemodialysis treated with peptide (15 μM-30 min), healthy donor's PMNs (N=6), untreated serum bar 3: 22.96±0.22, control bar 1: 31.96±0.21) of 24.16±0.23. Besides, the “inhibition of complement activation induced by hemodialysis biomaterials (C3b generation)” value in experiment [4] is “not inhibited”.
As for “I[CV^(1−Me)WQDWGAHRC]I—NH2 [compstatin analog 4[1MeW]]”, the “effect on coagulation cascade activation (intracellular TF in neutrophils)” value in experiment [5] is given as “attenuated”. Further, in experiment [6], the “effect on cellular activation (CD11b surface staining of neutrophils)” value is given as “attenuated”. Also, in experiment [7], the “effect on time-dependent complement activation (C3 cleavage products in plasma)” value is given as “abrogated this activation”.
